Tests used:
HIF-1α = conditions: for HIF-1α stabilization: higher concentrations causing increased stabilization
From the text: HIF-1α is stabilized in Mrs2−/− mice. To examine the intrinsic role of Mrs2, Mrs2^−/− mice were challenged to LPS-induced inflammatory response. It was noticed that there was a barely detectable HIF-1α stabilization in control but a significant HIF-1α protein accumulation following LPS stimulation in Mrs2^−/− hepatocytes (Daw et al., 2020). […] It was envisioned that loss of Mrs2 in hepatocyte mitochondria might control metabolite fluxes that regulates HIF-1α stability under normoxic conditions. HIF-1α is the most commonly studied transcription factor that responds to oxygen tension and its stabilization controls numerous metabolic cascades, including glycolysis and oxidative phosphorylation (Kaelin and Ratcliffe, 2008; Lum et al., 2007; Semenza, 2013). A targeted metabolite screen was conducted to identify whether these metabolites potentially altered in Mrs2^−/− control HIF-1α stabilization. WT hepatocytes were treated with the PHD inhibitor FG-4952 for 6 hours in the presence or absence of metabolites (Buckley et al., 2012). […] Next it was explored whether citric acid mediated HIF-1α destabilization is a hydroxylation dependent mechanism by reconstitution of hydroxylation-dead mutant HIF-1α in COS-7 cells (Yan et al., 2007). […] Next tested the potency of citric acid and sodium citrate was tested. Hepatocytes isolated from WT or Mrs2^−/− mice were treated for 6 hours. HIF-1α stabilization was less affected by di- or tri-sodium citrate than by citric acid (FIG. 9G). […] The citric acid-mediated HIF-1α destabilization was intact in multiple chemical modalities (FIG. 9H) and the intracellular chelation of Mg^2+ ions suppressed FG-4952-induced HIF-1α stabilization (FIG. 9I). […] Furthermore, COS-7 cells were more sensitive to the HIF-1α stabilizing effect compared to hepatocytes. […] Next HIF-1α abundance was tested in liver tissues harvested from dietary cohorts. HIF-1α protein expression/stabilization was prominent in both Mrs2^−/− and Mrs2^−/− WD, whereas HIF-1α protein was nearly completely absent in WT WD (FIG. 9M). This supports the elevation of HIF-1α protein level as a key mechanism driving transcription changes in Mrs2^−/− WD livers.
Immunoblotting. Crushed tissues were homogenized in lysis buffer (ThermoFisher) on ice for one minute (20-30 strokes) using an automatic Dounce homogenizer set to 2000 RPM. Whole cell lysate was prepared in lysis buffer (Abcam) using 3 sets of 3-second sonication (power level 3) intervals on ice. Protein concentration was estimated using Pierce BCA assay kit and samples were prepared and heated for 90° C. for 5 minutes. Equal amounts of protein were loaded and separated on 4%-12% Bis-Tris polyacrylamide gel (Thermo Fisher Scientific), transferred to a PVDF membrane, blocked for 1-2 h using 5% fat free skim milk, washed and finally, probed with corresponding antibodies as specified below. Antibodies were from Cell Signaling Technology (HIF-1α and Hydroxy HIF-1α dilution 1:3000, MCU dilution 1.5000, MICU1 dilution 1:3000), Abcam Abcam (CPT-1a, CPT-2, OXPHOS cocktail dilution 1:3000), ZYMED Laboratories (β-actin; dilution 1:1,000), and Amersham (secondary antibodies conjugated with peroxidase). Development was done using X-ray film using a series of timed exposures and Image J was used for densitometric analysis on scanned film images.

human MRS2 = target: T1, human MRS2 (Homo sapiens, UniProt Q9HD23); assay: Dynamic light scattering of purified full-length MRS2 assembly; assay type: binding; conditions: 5 mM
T1 construct: 6xHis (N, cleaved yes); made in house; host or cells: BL21 (DE3) codon+ Escherichia coli, pET-28a
T1 sequence (Q9HD23 58-443): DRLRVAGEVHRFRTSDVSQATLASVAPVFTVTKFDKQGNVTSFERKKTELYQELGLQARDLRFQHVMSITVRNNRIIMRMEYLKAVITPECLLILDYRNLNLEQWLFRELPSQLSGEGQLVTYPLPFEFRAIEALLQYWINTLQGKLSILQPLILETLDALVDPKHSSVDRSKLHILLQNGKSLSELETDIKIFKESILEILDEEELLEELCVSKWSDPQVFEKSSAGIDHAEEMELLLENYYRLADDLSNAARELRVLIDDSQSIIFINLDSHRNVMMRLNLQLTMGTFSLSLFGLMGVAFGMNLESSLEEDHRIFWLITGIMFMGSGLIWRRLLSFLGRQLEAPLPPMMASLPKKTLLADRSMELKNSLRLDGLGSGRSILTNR
Description: Next, CPACC was assessed to determine if it directly affects the assembly of purified human MRS2 using dynamic light scattering (DLS). DLS has been used to determine whether the complex stability of proteins/channels is altered by molecular chaperones or drugs (Kitamura et al., 2006). Because of the high sensitivity of DLS to changes in complex sizes, full-length Mrs2 assembly was evaluated in the presence Ca^2+ (5 mM), Mg^2+ (5 mM), Co^2+ (5 mM) or the Mrs2 blocker CPACC (0.5 mM) (FIG. 10K, FIG. 10L, FIG. 10M, FIG. 10N, FIG. 10O). […] A concentration-response assessment confirmed robust decreases in hydrodynamic radii at all CPACC concentrations tested and as low as 10 μM (FIG. 10O).
MRS2 cloning, expression, and purification. The full length human MRS2 (NCBI accession NP_065713.1), identified as MRS258-443 (i.e. residues 58-443) and excluding the mitochondrial targeting sequence, was cloned into pET-28a using Ndel and Xhol restriction sites. […]
Dynamic light scattering (DIS). […] The sample was equilibrated for 5 min at 20° C. before 10 autocorrelation function acquisitions of 5 s each were recorded and averaged. […] The dependence of hydrodynamic size on CPACC concentration was determined using ≈0.5 mg/mL protein supplemented with 0.01 mM, 0.05 mM, 0.1 mM, 0.5 mM or 0.75 mM CPACC, using a similar experimental setup as described above and cumulants analysis.

[1] = system: mitochondrial Mg^2+ uptake; assay: Metabolite screen for ER Mg2+ depletion and mitochondrial Mg2+ uptake, Mag-Green confocal imaging of hepatocytes; assay type: cell-based, murine
From the text: Targeted Metabolite Screen Identifies Lactate as activator agonist for Mitochondrial Mg^2+ Uptake. To search for agonists that promote mitochondrial Mg^2+ ([Mg^2+]m) uptake, the inventors developed a cell-based confocal fluorescence imaging. As an initial feature, the inventors tested whether GPCR agonist-induced second messengers promote Mg^2+ dynamics. To discriminate intracellular Ca^2+ and Mg^2+ dynamics, MEFs were loaded with cell permeant Ca^2+ indicator, Fluo-4-AM or Mg^2+ indicator Mag green-AM followed by GPCR agonist, thrombin stimulation. […] It is established that intracellular Ca^2+ dynamics could be monitored using a wide range of fluorescent dyes or genetically encoded Ca^2+ indicators. Conversely, Mg^2+ sensitive indicators are very limited due to either lack of agonists or robust dynamic nature. To identify the agonist, primary murine hepatocytes were loaded with [Mg^2+]i indicator, cell permeant Mag Green-AM (5 μM). Subsequently, dye loaded hepatocytes were stimulated with major cellular metabolites and mitochondrial oxidative phosphorylation (OXPHOS) inhibitors following baseline recording. […] As depicted in FIG. 1B, the reciprocal mobilization of free Mg^2+ ion from ER to mitochondria was observed upon stimulation of Lactate (5 mM) in a temporal fashion. To confirm that lactate-induced Mag-Green signals are indeed measured from mitochondrial compartment, hepatocytes were simultaneously loaded with mitochondrial marker Mito-tracker Red and Mag-Green-AM (FIG. 1C-1F). […] Conversely, sodium lactate or lactic acid (5 mM) triggered a rapid depletion of ER signal with concomitant accumulation nucleus followed by mitochondrial elevation of Mag Green signal with a lag time of ˜25 s (FIG. 1D). Besides nucleotides such as ATP, citrate is also known to chelate free Mg^2+. Since ATP is cell impermeable, citrate (5 mM) was applied and intracellular Mg^2+ mobilization monitored. […] To exclude the possibility that acidic pH of medium by lactate could alter membrane polarization, the pH was normalized. Additionally, the inventors also tested whether both sodium lactate as well as lactic acid induce mitochondrial Mg^2+ uptake. Consistent with sodium form of lactate, lactic acid also elicited a rapid ER depletion followed by mitochondrial Mg^2+ influx indicating a lactate role as an activator of Mg^2+ dynamics. Thus, natural metabolite, lactate rapidly mobilizes ER Mg^2+ which led to cytosolic elevation resulting in activation mitochondrial Mg^2+ uptake.
Mitochondrial Mg^2+ Transporter is Temperature Sensitive. […] To assess optimal concentration of lactate required to trigger Mg^2+ depletion from ER compartment and mitochondrial Mg^2+ uptake, both ER-depletion and mitochondrial Mg^2+ uptake was measured in hepatocytes at 37° C. […] However, a consistent stronger response was perceived at 5 mM lactate stimulation (FIG. 2A and 2B). During these studies depletion of ER Mg^2+ was noticed at 37° C. and room temperature (25° C.) upon 5 mM lactate stimulation (FIG. 2C). Remarkably, mitochondrial Mg^2+ uptake was higher at 37° C. and had no effect at 25° C. showing a temperature sensitivity (FIG. 2D). Based on this experimental evidence, a wide range of temperatures were tested. To determine the temperature responsiveness, primary hepatocytes were kept between 25° C.-40° C. and cells were stimulated with 5 mM lactate. […] (FIG. 2F). Intriguingly, the lactate response was not seen at 25° C. or 30° C. (FIG. 2F).
ER-Dependent Efflux of Free Mg^2+ Promotes Mitochondrial Mg^2+ Uptake. […] Since extracellular delivery of lactate rapidly induces ER-depletion and subsequent mitochondrial uptake, it was asked whether rapid influx of lactate regulates this mechanism. Most mammalian cells utilize monocarboxylate transporters (MCT1-4) for plasma membrane lactate entry. To test this, primary hepatocytes were treated with MCT1 or MCT1/2 inhibitors for 60 minutes. […]

MEFs = assay: Intracellular Ca2+ and Mg2+ dynamics in MEFs (Fluo-4-AM, Mag green-AM); assay type: cell-based
From the text: Targeted Metabolite Screen Identifies Lactate as activator agonist for Mitochondrial Mg^2+ Uptake. To search for agonists that promote mitochondrial Mg^2+ ([Mg^2+]m) uptake, the inventors developed a cell-based confocal fluorescence imaging. As an initial feature, the inventors tested whether GPCR agonist-induced second messengers promote Mg^2+ dynamics. To discriminate intracellular Ca^2+ and Mg^2+ dynamics, MEFs were loaded with cell permeant Ca^2+ indicator, Fluo-4-AM or Mg^2+ indicator Mag green-AM followed by GPCR agonist, thrombin stimulation. […] It is established that intracellular Ca^2+ dynamics could be monitored using a wide range of fluorescent dyes or genetically encoded Ca^2+ indicators. Conversely, Mg^2+ sensitive indicators are very limited due to either lack of agonists or robust dynamic nature. To identify the agonist, primary murine hepatocytes were loaded with [Mg^2+]i indicator, cell permeant Mag Green-AM (5 μM). […] To confirm that lactate-induced Mag-Green signals are indeed measured from mitochondrial compartment, hepatocytes were simultaneously loaded with mitochondrial marker Mito-tracker Red and Mag-Green-AM (FIG. 1C-1F). […] Since ATP is cell impermeable, citrate (5 mM) was applied and intracellular Mg^2+ mobilization monitored. […]

## [Cl][Co][Cl] [CoCl2, cobalt chloride, reference compound]
HIF-1α; hepatocytes
  HIF-1α stabilization: promoted HIF-α stabilization

## [Cl-].[Cl-].[Co+2] [Co^2+, reference compound]
Human MRS2
  full-length MRS2 complex sizes (DLS): potently decreased

## COC(=O)CNC(=O)C(=O)OC [DMOG, reference compound]
HIF-1α; hepatocytes
  HIF-1α stabilization: promoted HIF-α stabilization

## Cc1nc(C(=O)NCC(=O)O)c(O)c2ccc(Oc3ccccc3)cc12 [FG-4592, reference compound]
HIF-1α; hepatocytes
  HIF-1α stabilization: promoted HIF-α stabilization

## [Cl-].[Cl-].[Mg+2] [Mg^2+]
HIF-1α; 10 mM, normoxia
  HIF-1α stabilization at high levels: sufficient to promote low levels of HIF-1α stabilization

## N#C/C(=C\c1cn(-c2ccccc2)c2ccccc12)C(=O)O [UK5099, reference compound]
HIF-1α; hepatocytes
  effect of blockade of mitochondrial pyruvate entry on HIF-1α stabilization: did not prevent HIF-1α stabilization

## O=C(O)CC(O)(CC(=O)O)C(=O)O [citrate]
[1]; 5 mM
  effect on mitochondrial and ER Mg^2+ signals: partly chelated both mitochondrial and ER Mg^2+ signals

## CC(O)C(=O)O (centres unmarked) [lactate]
[1]; 5 mM, 25° C. or 30° C.
  lactate-induced mitochondrial Mg^2+ uptake: not seen
[1]; 5 mM, 25° C.-40° C.
  Lactate-induced ER Mg^2+ depletion: seen at all the indicated temperature range
[1]; 5 mM, 34° C. and 40° C.
  lactate-induced mitochondrial Mg^2+ uptake: sub-optimal
[1]; 5 mM, 37° C.
  lactate-induced mitochondrial Mg^2+ uptake: maximal
[1]; hepatocytes, 37° C.
  concentration that promotes ER depletion and partial uptake of Mg^2+ into mitochondria: ≥ 2 mM
[1]; metabolite screen, primary murine hepatocytes
  ER Mag-Green signal depletion and mitochondrial Mg^2+ uptake: rapid and robust depletion of ER Mag-Green signal followed by a subsequent elevation in the mitochondria

## CC(O)C(=O)O (centres unmarked) [lactic acid]
[1]; 5 mM
  lag time to mitochondrial elevation of Mag Green signal: ~25 s

## CC(O)C(=O)[O-].[Na+] (centres unmarked) [sodium lactate]
[1]; 5 mM
  lag time to mitochondrial elevation of Mag Green signal: ~25 s

## thrombin
MEFs; Fluo-4-AM
  cytosolic Ca^2+ mobilization: rapidly elicited cytosolic Ca^2+ mobilization
MEFs; Mag green-AM
  intracellular Mg^2+ dynamics: absent
